Columns and labels:
rat MCAO model of stroke = assay: in vivo assay on brain injury following MCAO; parameters: species or system Sprague-Dawley rats
Experimental: The control group received Hepes buffered saline.
Four drug treated groups received Compound 1. For each rat, the treatment was initiated at 60 minutes post middle cerebral artery occlusion (MCAO) by an IV bolus injection which was immediately followed by IV infusion for 4 hours at rate of 0.5 ml/hr. Group 1 (n=9) received a dose of 100 mg/kg IV bolus followed by 20 mg/kg/hr IV infusion for 4 hours. Group 2 (n=11) received a dose of 30 mg/kg IV bolus followed by 6 mg/kg/hr IV infusion for 4 hours. Group 3 (n=9) received a dose of 10 mg/kg IV bolus followed by 2 mg/kg/hr IV infusion for 4 hours. Group 3 rats were also treated at 120 minutes, 180 minutes and 360 minutes post-occlusion. Group 4 (n=8) received a dose of 3 mg/kg IV bolus followed by […] IV infusion for 4 hours.
Two additional drug treated groups received 2-(3-sulfanylpropyl)pentanedioic acid. For each rat, the treatment was initiated at 120 minutes post middle cerebral artery occlusion (MCAO) by an IV bolus injection which was immediately followed by IV infusion for 4 hours at rate of 0.5 ml/hr. Group 5 received a dose of 30 mg/kg IV bolus followed by 6 mg/kg/hr IV infusion for 4 hours. Group 6 received a dose of 10 mg/kg IV bolus followed by 2 mg/kg/hr IV infusion.
Twenty two hours following the reperfusion, the rats were euthanized and their brains were removed. Seven coronal sections (2 mm thick) were taken and stained with 1% solution of 2,3,5-triphenyl-tetraxolium chloride (TTC) for 20 minutes and then fixed in 10% formalin. The anterior and posterior surface of the most rostral brain section and the posterior surface of each of the remaining 6 sections were imaged. The quantification of infarct size of each brain was obtained using a computer aided-digital imaging analysis system (LOATS). The brain regions completely lacking TTC-staining were characterized as representative of infarcted tissue. The total infarct volume for each rat was calculated by numeric integration of the respective sequential brain areas.
Male Sprague-Dawley rats (260-320 g) were used. They were individually housed and allowed free access to food and water. Two days prior to the experiment, they were given restricted food if necessary to maintain the body weight Each rat received two surgeries: femoral vein cannulation for IV infusion and MCAO. During surgeries, the rat was anesthetized with 1.5% halothane delivered in oxygen via an inhalation mask. The body temperature was monitored and regulated at normothermic level using a homeothermic heating system. First, a catheter was inserted into the left femoral vein. Thirty minutes later, the rat was reanesthetized for MCAO surgery. The MCAO was achieved using the endovascular suture method described by Long et al., Stroke, Vol. 20, pp. 84-91 (1989). Specifically, the right external carotid artery (ECA) was exposed, coagulated and transected. A 3-0 monofilament nylon suture with a blunted tip and a coat of 0.05% Poly-1-Lysine was introduced into the proximal stump of the ECA via an arteriotomy. It was advanced 22 mm from the carotid bifurcation until it lodged in the proximal region of the anterior cerebral artery, thereby occluding the origin of the MCA. The rats were allowed to wake up; 2 hours later, the rats were reanesthetized for reperfusion, during which the nylon suture was retracted to the stump of the ECA allowing blood recirculation to the MCA.

STZ-diabetic animals = assay: motor and sensory nerve conduction velocity in STZ-diabetic animals; type: in vivo, rats; details: either dose (10 mg/kg or 1 mg/kg); significant after 12 weeks at 10 mg/kg, earlier at 1 mg/kg
Experimental: Male Sprague-Dawley rats (200-225 g) were rendered diabetic by intravenous administration of streptozotocin (STZ, 70 mg/kg in phosphate buffered saline). Diabetic animals were divided into five groups: one group receiving Compound 2 (10 mg/kg or 1 mg/kg), Compound 1 (10 mg/kg or 1 mg/kg) or vehicle. Another group of animals (non-STZ treated) served as non-diabetic controls. Drug/vehicle treatment was started in diabetic animals 45 days post-STZ administration. STZ-induced diabetic rats were tested for sensitivity to a heat source as soon as blood glucose levels rose to 320 mg/dl or above (30 days post STZ). The rats were then acclimated to the Hargreaves apparatus and thermal nociception was monitored using an infrared heat source directed into the […] surface of the hindpaw, and the time taken for the animal to remove its paw noted to the nearest 0.1 seconds (see Hargreaves et al. 1998 for detailed method). The intensity of the beam source was adjusted such that the mean latency for control animals (non-STZ treated) was approximately 10 seconds. Each animal was tested 8 times and the mean difference score (between mean non-diabetic control latency and mean diabetic latency) are graphically presented in FIGS. 19A and 19B.
Motor and sensory nerve conduction velocity was also measured in STZ-diabetic animals after 4, 8 and 12 weeks of treatment (see De Koning and Gispen 1987 for detailed method). Briefly, stimulating needle electrodes were inserted close to the sciatic and tibial nerves with recording electrodes being placed subcutaneously over the distal foot muscles, in anesthetized rats.

PCP-treated rats = assay: in vivo assay on schizophrenia (PCP model); details: 50 mg/kg i.p. before PCP (5 mg/kg)
Experimental: Rats treated with PCP develop symptoms, such as frantic running and incessant head-turning, that parallel psychotic symptoms in humans. Thus, to examine the effects of NAALADase inhibition on schizophrenia, rats were treated intraperitoneally with Compound 1 (50 mg/kg), Compound 2 (50 mg/kg) or a vehicle (H2O) before they received PCP (5 mg/kg). Head rolling scores were measured for over 2 hours following PCP injection.

BB/W diabetic rats = assay: progression of neuropathic pain in BB/W diabetic rats, thermal nociception; type: in vivo, Male BB/W rats; details: 10 mg/kg i.p. daily; starting after 4 weeks, through six months
From the text: Male BB/W rats (BR1, Mass) spontaneously develop a cell mediated autoimmune destruction of pancreatic B cells, resulting in onset of insulin-dependent (Type I) diabetes (Guberski 1994). […] This renders them valuable for experimental trials of new compounds for future treatments of this major disorder. In the present study, Compound 1 and Compound 2 were examined for their ability to alter the progression of diabetic neuropathy. The rats received daily injection of Compound 1 or Compound 2 (10 mg/kg i.p.) or vehicle, starting at the onset of diabetes (hyperglycemia) and up to 6 months thereafter. Another group of non-diabetic rats also receiving vehicle were tested. All animals were continuously monitored for body weight, urine volume, blood sugar and glycated haemoglobin. In the first month of the study, all animals were tested for thermal nociception in a Hargreaves apparatus, weekly. After the first month this was done biweekly and then monthly. The testing consists of directing an infrared heat source onto the […] surface of the rat hindpaw and noting the time taken for the animal to remove its paw (for detailed method see Hargreaves et al. 1998). Each animal was tested 8 times and the mean withdrawal latency noted.

Compound: O=C(O)CCC(CCS)C(=O)O (centres unmarked) [Compound 1, 2-(2-sulfanylethyl)pentanedioic acid]
- mean total brain infarct volume (rat MCAO model of stroke; Group 1: 100 mg/kg IV bolus + 20 mg/kg/hr IV infusion 4 hours, 60 minutes post MCAO): 123±31 mm^3
- mean total brain infarct volume (rat MCAO model of stroke; Group 2: 30 mg/kg IV bolus + 6 mg/kg/hr IV infusion 4 hours, 60 minutes post MCAO): 141±78 mm^3
- mean total brain infarct volume (rat MCAO model of stroke; Group 3: 10 mg/kg IV bolus + 2 mg/kg/hr IV infusion 4 hours, treated at 60 minutes post-occlusion): 152±32 mm^3
- mean total brain infarct volume (rat MCAO model of stroke; Group 4: 3 mg/kg IV bolus + 3 mg/kg/hr IV infusion 4 hours, 60 minutes post MCAO): 117±22 mm^3
- neuroprotection in rat MCAO model of stroke (rat MCAO model of stroke; administered 60, 120, 180 and 360 minutes post-occlusion): neuroprotective
- % Protect (rat MCAO model of stroke; dose 1 mg/kg, 60 minutes post MCAO): 20%
- % Protect (rat MCAO model of stroke; dose 3 mg/kg, 60 minutes post MCAO): 52%
- % Protect (rat MCAO model of stroke; dose 10 mg/kg, 60 minutes post MCAO): 50%
- % Protect (rat MCAO model of stroke; dose 10 mg/kg, 120 minutes post MCAO): 33%
- % Protect (rat MCAO model of stroke; dose 10 mg/kg, 180 minutes post MCAO): 47%
- % Protect (rat MCAO model of stroke; dose 10 mg/kg, 360 minutes post MCAO): 50%
- % Protect (rat MCAO model of stroke; dose 30 mg/kg, 60 minutes post MCAO): 52%
- % Protect (rat MCAO model of stroke; dose 100 mg/kg IV bolus, 60 minutes post MCAO): 44%
- infarct size vs. vehicle treated rats (rat MCAO model of stroke; four Compound 1 treated groups): significantly smaller infarct size
- motor and sensory nerve conduction velocities vs. diabetic controls (STZ-diabetic animals): increased
- locomotor-activating effects of PCP (head rolling scores) (PCP-treated rats): significantly reduced
- withdrawal latencies vs. diabetic vehicle-treated rats (BB/W diabetic rats): longer withdrawal latencies

— patent US20030083374A1, “NAALADase inhibitors useful as pharmaceutical compounds and compositions” (priority 1998, published 2003)
